Measurements reported in PubChem BioAssay AID192 (DTP/NCI, 2004).
Toxic doses and inconclusive results are not listed. The calls were made as follows: active = survival T/C of 150% or more; inactive = T/C below 125% in these data.

System: BDF1 mice, B16 melanoma ip, median survival T/C
Assay: NCI In Vivo Anticancer Drug Screen. Data for tumor model B16 Melanoma (intraperitoneal) in B6D2F1 (BDF1) mice
Conditions: endpoint: median survival time, higher = longer survival
Procedure, shortened: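 Read-out: survival or tumor size, given as treated/control ratio. Controls received vehicle only; animals bore transplantable tumors.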

[1] = dose: 100.0 mg/kg/injection, schedule: Q01DX009 (ip), vehicle: Klucel (hydroxypropylcellulose) (HPC)
[2] = dose: 50.0 mg/kg/injection, schedule: Q01DX009 (ip), vehicle: saline with Tween-80
[3] = dose: 100.0 mg/kg/injection, schedule: Q01DX009 (ip), vehicle: saline with Tween-80
[4] = dose: 2.5 mg/kg/injection, schedule: Q01DX009 (ip), vehicle: Klucel (hydroxypropylcellulose) (HPC)
[5] = dose: 5.0 mg/kg/injection, schedule: Q01DX009 (ip), vehicle: Klucel (hydroxypropylcellulose) (HPC)
[6] = dose: 10.0 mg/kg/injection, schedule: Q01DX009 (ip), vehicle: Klucel (hydroxypropylcellulose) (HPC)

Measured: T/C

C=C(C)C12CC(COC(=O)c3ccccc3)C34OC5(OC1C3C1OC1(COC(=O)CCCCCCCCCCCCCCC)C(O)C1(O)C(OC(=O)c3ccccc3)C(C)C(C(C)CCCCCCC5O)C14)O2 (stereo not drawn)
inactive: dose: 0.5 micrograms/kg/injection, schedule: Q01DX009 (ip), vehicle: saline 106 % of control | dose: 1.0 micrograms/kg/injection, schedule: Q01DX009 (ip), vehicle: saline 99 % of control | dose: 1.9 micrograms/kg/injection, schedule: Q01DX009 (ip), vehicle: saline 100 % of control | dose: 3.8 micrograms/kg/injection, schedule: Q01DX009 (ip), vehicle: saline 109 % of control | dose: 7.5 micrograms/kg/injection, schedule: Q01DX009 (ip), vehicle: saline 94 % of control | dose: 15.0 micrograms/kg/injection, schedule: Q01DX009 (ip), vehicle: saline 96 % of control | dose: 30.0 micrograms/kg/injection, schedule: Q01DX009 (ip), vehicle: saline 96 % of control

O=C(Cc1ccccc1)OCCc1ccccc1
inactive: [1] 103 % of control | dose: 200.0 mg/kg/injection, schedule: Q01DX009 (ip), vehicle: Klucel (hydroxypropylcellulose) (HPC) 100 % of control | dose: 400.0 mg/kg/injection, schedule: Q01DX009 (ip), vehicle: Klucel (hydroxypropylcellulose) (HPC) 93 % of control

CCSc1nc(C)cc(Cl)n1
inactive: [2] 100 % of control | [3] 104 % of control | dose: 200.0 mg/kg/injection, schedule: Q01DX009 (ip), vehicle: saline with Tween-80 88 % of control

CCN(CC)CCNc1ccc([N+](=O)[O-])cc1[N+](=O)[O-]
inactive: dose: 25.0 mg/kg/injection, schedule: Q01DX009 (ip), vehicle: saline with Tween-80 100 % of control | [2] 113 % of control | dose: 50.0 mg/kg/injection, schedule: Q04DX003 (ip), vehicle: saline with Tween-80 102 % of control | [3] 100 % of control | dose: 100.0 mg/kg/injection, schedule: Q04DX003 (ip), vehicle: saline with Tween-80 100 % of control

O=C(CCCN1CCN(c2ccccn2)CC1)c1ccc(F)cc1
inactive: dose: 0.19 mg/kg/injection, schedule: Q01DX009 (ip), vehicle: Klucel (hydroxypropylcellulose) (HPC) 93 % of control | dose: 0.39 mg/kg/injection, schedule: Q01DX009 (ip), vehicle: Klucel (hydroxypropylcellulose) (HPC) 89 % of control | dose: 0.78 mg/kg/injection, schedule: Q01DX009 (ip), vehicle: Klucel (hydroxypropylcellulose) (HPC) 110 % of control | dose: 1.56 mg/kg/injection, schedule: Q01DX009 (ip), vehicle: Klucel (hydroxypropylcellulose) (HPC) 92 % of control | dose: 3.12 mg/kg/injection, schedule: Q01DX009 (ip), vehicle: Klucel (hydroxypropylcellulose) (HPC) 88 % of control

Cc1nc(NCc2ccccc2)c2cc[nH]c2n1
inactive: dose: 0.04 mg/kg/injection, schedule: Q01DX009 (ip), vehicle: saline 116 % of control | dose: 0.09 mg/kg/injection, schedule: Q01DX009 (ip), vehicle: saline 123 % of control | dose: 0.39 mg/kg/injection, schedule: Q01DX009 (ip), vehicle: saline 113 % of control

CC(C)=CCC(O)C1=CC(=O)c2c(O)ccc(O)c2C1=O (stereo not drawn)
inactive: dose: 1.25 mg/kg/injection, schedule: Q01DX009 (ip), vehicle: Klucel (hydroxypropylcellulose) (HPC) 107 % of control | [4] 102 % of control | [5] 92 % of control | [6] 87 % of control

C[N+](C)(C)C
inactive: dose: 0.37 mg/kg/injection, schedule: Q01DX009 (ip), vehicle: saline 112 % of control | dose: 1.5 mg/kg/injection, schedule: Q01DX009 (ip), vehicle: saline 109 % of control | dose: 12.5 mg/kg/injection, schedule: Q01DX009 (ip), vehicle: saline 95 % of control

C1CNCCN1
inactive: dose: 25.0 mg/kg/injection, schedule: Q01DX009 (ip), vehicle: suspension in saline 93 % of control | dose: 50.0 mg/kg/injection, schedule: Q01DX009 (ip), vehicle: suspension in saline 102 % of control | dose: 100.0 mg/kg/injection, schedule: Q01DX009 (ip), vehicle: suspension in saline 106 % of control | dose: 200.0 mg/kg/injection, schedule: Q01DX009 (ip), vehicle: suspension in saline 90 % of control

C=C1C(=O)O[C@@H]2[C@H](O)[C@@H](C)[C@@H]3C=CC(=O)[C@@]3(C)[C@H](OC(=O)C=C(C)C)[C@H]12
inactive: [4] 104 % of control | dose: 3.12 mg/kg/injection, schedule: Q01DX009 (ip), vehicle: saline 102 % of control | [5] 119 % of control | dose: 6.25 mg/kg/injection, schedule: Q01DX009 (ip), vehicle: saline 86 % of control | [6] 113 % of control

CC(C)(C)c1cc([N+](=O)[O-])cc(C(C)(C)C)c1O
inactive: dose: 25.0 mg/kg/injection, schedule: Q01DX009 (ip), vehicle: Klucel (hydroxypropylcellulose) (HPC) 95 % of control | dose: 50.0 mg/kg/injection, schedule: Q01DX009 (ip), vehicle: Klucel (hydroxypropylcellulose) (HPC) 93 % of control | [1] 95 % of control

CCOCCc1ccccn1
inactive: dose: 12.5 mg/kg/injection, schedule: Q04DX003 (ip), vehicle: saline 106 % of control | dose: 25.0 mg/kg/injection, schedule: Q04DX003 (ip), vehicle: saline 100 % of control | dose: 50.0 mg/kg/injection, schedule: Q04DX003 (ip), vehicle: saline 96 % of control
